Reference: PubChem BioAssay AID192 (DTP/NCI, 2004)
Where “and” joins values, the source holds several entries; their conditions need not be identical. Equal entries are not always repeated. Toxic doses and inconclusive results are not listed.

System: BDF1 mice, B16 melanoma ip, median survival T/C
Assay: NCI In Vivo Anticancer Drug Screen. Data for tumor model B16 Melanoma (intraperitoneal) in B6D2F1 (BDF1) mice
Details: endpoint: median survival time, higher = longer survival
Method in brief: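 Vehicle-treated animals serve as the reference (C); treated animals (T) are scored for survival or tumor size after tumor transplantation.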

[1] = dose: 50.0 mg/kg/injection, schedule: Q01DX009 (ip), vehicle: saline
[2] = dose: 100.0 mg/kg/injection, schedule: Q01DX009 (ip), vehicle: saline
[3] = dose: 50.0 mg/kg/injection, schedule: Q01DX009 (ip), vehicle: Klucel (hydroxypropylcellulose) (HPC)
[4] = dose: 100.0 mg/kg/injection, schedule: Q01DX009 (ip), vehicle: Klucel (hydroxypropylcellulose) (HPC)
[5] = dose: 12.5 mg/kg/injection, schedule: Q01DX009 (ip), vehicle: saline
[6] = dose: 25.0 mg/kg/injection, schedule: Q01DX009 (ip), vehicle: saline
[7] = dose: 200.0 mg/kg/injection, schedule: Q01DX009 (ip), vehicle: Klucel (hydroxypropylcellulose) (HPC)
[8] = dose: 100.0 mg/kg/injection, schedule: Q01DX009 (ip), vehicle: saline with Tween-80
[9] = dose: 200.0 mg/kg/injection, schedule: Q01DX009 (ip), vehicle: saline with Tween-80
[10] = dose: 400.0 mg/kg/injection, schedule: Q01DX009 (ip), vehicle: saline with Tween-80
[11] = dose: 400.0 mg/kg/injection, schedule: Q01DX009 (ip), vehicle: Klucel (hydroxypropylcellulose) (HPC)
[12] = dose: 25.0 mg/kg/injection, schedule: Q01DX009 (ip), vehicle: Klucel (hydroxypropylcellulose) (HPC)
[13] = dose: 25.0 mg/kg/injection, schedule: Q01DX009 (ip), vehicle: saline with Tween-80
[14] = dose: 50.0 mg/kg/injection, schedule: Q01DX009 (ip), vehicle: saline with Tween-80
[15] = dose: 12.5 mg/kg/injection, schedule: Q01DX009 (ip), vehicle: Klucel (hydroxypropylcellulose) (HPC)

`CCCC(=O)Nc1ncnc2c1ncn2C1OC2COP(=O)(O)OC2C1OC(=O)CCC` (stereo not drawn) was tested, and the T/C [1] was 100 % of control, the T/C [2] was 94 % of control and the T/C (dose: 200.0 mg/kg/injection, schedule: Q01DX009 (ip), vehicle: saline) was 89 % of control.
In the case of `COc1cc(O)c2c(c1)C(=O)c1cc3c(c(O)c1C2=O)C(OC1OC(C)C(O)C(O)C1OC)C(OC)C(C)(O)C3=O` (stereo not drawn), the T/C [3] was 117 % of control and the T/C [4] was 96 % of control.
In the case of `Cc1cc2c3ccc(C)[n+](C)c3ccc2n1C`, the T/C (dose: 0.08 mg/kg/injection, schedule: Q01DX009 (ip), vehicle: saline) was 102 % of control, the T/C (dose: 0.15 mg/kg/injection, schedule: Q01DX009 (ip), vehicle: saline) was 92 % of control and the T/C (dose: 0.3 mg/kg/injection, schedule: Q01DX009 (ip), vehicle: saline) was 97 % of control. For the same molecule, the T/C (dose: 1.25 mg/kg/injection, schedule: Q01DX009 (ip), vehicle: saline) was 100 % of control and the T/C (dose: 2.5 mg/kg/injection, schedule: Q01DX009 (ip), vehicle: saline) was 94 % of control.
`Cc1cn(C2CC(F)C(CO)O2)c(=O)[nH]c1=O` (stereo not drawn) was tested, and the T/C (dose: 6.25 mg/kg/injection, schedule: Q01DX009 (ip), vehicle: saline) was 108 % of control, the T/C [5] was 103 % of control and the T/C [6] was 110 % of control. For the same molecule, the T/C [1] was 115 % of control and the T/C [2] was 97 % of control.
For `COc1cc2ccc3c[n+]4ccccc4cc3c2cc1OC`, the T/C (dose: 25.0 mg/kg/injection, schedule: Q04DX009 (ip), vehicle: Klucel (hydroxypropylcellulose) (HPC)) was 97 % of control, the T/C (dose: 50.0 mg/kg/injection, schedule: Q04DX009 (ip), vehicle: Klucel (hydroxypropylcellulose) (HPC)) was 93 % of control and the T/C (dose: 100.0 mg/kg/injection, schedule: Q04DX009 (ip), vehicle: Klucel (hydroxypropylcellulose) (HPC)) was 89 % of control. For the same molecule, the T/C (dose: 150.0 mg/kg/injection, schedule: Q04DX009 (ip), vehicle: Klucel (hydroxypropylcellulose) (HPC)) was 95 % of control.
For `Cc1ccc(NC(=O)COc2cc(Cl)c(Cl)cc2Cl)c([N+](=O)[O-])c1`, the T/C [4] was 93 % of control and the T/C [7] was 100 % of control.
In the case of `O=C(/C=C/C(=O)OCC(Cl)(Cl)Cl)OCC(Cl)(Cl)Cl`, the T/C [8] was 96 % of control and the T/C [9] was 92 % of control.
In the case of `O=[N+]([O-])c1ccc2ccccc2c1I`, the T/C [8] was 101 % of control, the T/C [9] was 103 % of control and the T/C [10] was 99 % of control.
For `CC[S][Hg][Cl]`, the T/C (dose: 0.75 mg/kg/injection, schedule: Q04DX003 (ip), vehicle: saline with Tween-80) was 93 % of control, the T/C (dose: 1.5 mg/kg/injection, schedule: Q04DX003 (ip), vehicle: saline with Tween-80) was 100 % of control and the T/C (dose: 3.0 mg/kg/injection, schedule: Q04DX003 (ip), vehicle: saline with Tween-80) was 97 % of control. The T/C (dose: 6.25 mg/kg/injection, schedule: Q04DX003 (ip), vehicle: saline with Tween-80) was 86 % of control.
In the case of `CCc1cc(C)cc(OC(=O)Nc2ccccc2)c1`, the T/C [8] was 97 % of control, the T/C [9] was 93 % of control and the T/C [10] was 100 % of control.
In the case of `COc1ccc(NC(=S)Nc2ccc(OC)cc2)cc1`, the T/C [4] was 106 % of control, the T/C [7] was 96 % of control and the T/C [11] was 93 % of control.
With `O=C(O)c1[nH]c(=O)[nH]c(=O)c1F` the T/C (dose: 2.0 mg/kg/injection, schedule: Q01DX009 (ip), vehicle: saline) was 92 % of control and the T/C (dose: 4.0 mg/kg/injection, schedule: Q01DX009 (ip), vehicle: saline) was 95 % of control.
`COC1C(C)OC(OC2CC(C)(O)Cc3cc4c(c(O)c32)C(=O)c2c(O)cc3c(c2C4=O)OC2OC3(C)C(O)C(N(C)C)C2O)C(OC)C1(C)OC` (stereo not drawn) was tested, and the T/C (dose: 0.16 mg/kg/injection, schedule: Q01DX009 (ip), vehicle: other) was 95 % of control, the T/C (dose: 0.63 mg/kg/injection, schedule: Q01DX009 (ip), vehicle: other) was 159 % of control and the T/C (dose: 5.4 mg/kg/injection, schedule: Q04DX003 (ip), vehicle: lactic acid) was 195 % of control. For the same molecule, the T/C (dose: 9.0 mg/kg/injection, schedule: Q04DX003 (ip), vehicle: lactic acid) was 171 % of control.
With `COc1ccc(Br)cc1/C=N\NS(=O)(=O)c1ccc(C)cc1` the T/C [4] was 94 % of control, the T/C [8] was 90 % of control and the T/C [7] was 110 % of control. The T/C [9] was 95 % of control and the T/C [11] was 100 % of control.
For `CC1(C)C2CCC([CH2][Hg][Cl])C1C2` (stereo not drawn), the T/C (dose: 2.5 mg/kg/injection, schedule: Q01DX009 (ip), vehicle: saline with Tween-80) was 87 % of control, the T/C (dose: 5.0 mg/kg/injection, schedule: Q01DX009 (ip), vehicle: saline with Tween-80) was 103 % of control and the T/C (dose: 10.0 mg/kg/injection, schedule: Q01DX009 (ip), vehicle: saline with Tween-80) was 87 % of control. For the same molecule, the T/C (dose: 20.0 mg/kg/injection, schedule: Q01DX009 (ip), vehicle: saline with Tween-80) was 96 % of control.
With `CN(C)N=Nc1ccc(NC(N)=O)cc1` the T/C (dose: 18.75 mg/kg/injection, schedule: Q01DX009 (ip), vehicle: Klucel (hydroxypropylcellulose) (HPC)) was 123 % of control and the T/C (dose: 37.5 mg/kg/injection, schedule: Q01DX009 (ip), vehicle: Klucel (hydroxypropylcellulose) (HPC)) was 86 % of control.
With `CCNC(C)(C)C(S)c1ccc(Cl)s1` (stereo not drawn) the T/C (dose: 18.75 mg/kg/injection, schedule: Q01DX009 (ip), vehicle: saline with Tween-80) was 97 % of control, the T/C [12] was 97 % of control and the T/C (dose: 37.5 mg/kg/injection, schedule: Q01DX009 (ip), vehicle: saline with Tween-80) was 101 % of control. For the same molecule, the T/C [3] was 101 % of control, the T/C (dose: 75.0 mg/kg/injection, schedule: Q01DX009 (ip), vehicle: saline with Tween-80) was 100 % of control and the T/C [4] was 95 % of control. For the same molecule, the T/C (dose: 150.0 mg/kg/injection, schedule: Q01DX009 (ip), vehicle: saline with Tween-80) was 106 % of control.
In the case of `Nc1ccc2ncccc2c1`, the T/C [5] was 111 % of control, the T/C [6] was 105 % of control and the T/C [1] was 109 % of control.
`COC(=O)Nc1ccc(Cc2ccc(NC(=O)OC)cc2)cc1` was tested, and the T/C (dose: 6.25 mg/kg/injection, schedule: Q01DX009 (ip), vehicle: saline with Tween-80) was 107 % of control, the T/C (dose: 12.5 mg/kg/injection, schedule: Q01DX009 (ip), vehicle: saline with Tween-80) was 110 % of control and the T/C [13] was 112 % of control. The T/C [14] was 115 % of control.
In the case of `O=C(NCCO)Nc1ccc(Cl)c(Cl)c1`, the T/C (dose: 90.0 mg/kg/injection, schedule: Q01DX009 (ip), vehicle: other) was 102 % of control, the T/C (dose: 100.0 mg/kg/injection, schedule: Q01DX009 (ip), vehicle: other) was 100 % of control and the T/C (dose: 200.0 mg/kg/injection, schedule: Q01DX009 (ip), vehicle: other) was 94 % of control. The T/C (dose: 300.0 mg/kg/injection, schedule: Q01DX009 (ip), vehicle: other) was 87 % of control and the T/C (dose: 400.0 mg/kg/injection, schedule: Q01DX009 (ip), vehicle: other) was 90 % of control.
For `CCCCN(CCCC)C(Cl)=Nc1ccccc1`, the T/C (dose: 6.25 mg/kg/injection, schedule: Q01DX009 (ip), vehicle: Klucel (hydroxypropylcellulose) (HPC)) was 89 % of control and 99 % of control, the T/C [15] was 101 % of control and 102 % of control and the T/C [12] was 101 % of control. The T/C [3] was 96 % of control and 103 % of control, the T/C [4] was 93 % of control and 105 % of control and the T/C [7] was 88 % of control and 100 % of control.
In the case of `COc1cccc(CNc2cccc(Cl)c2Cl)c1OC`, the T/C [15] was 99 % of control, the T/C [12] was 105 % of control and the T/C [3] was 101 % of control. For the same molecule, the T/C [4] was 101 % of control, the T/C [7] was 95 % of control and the T/C [11] was 102 % of control.
For `CCC1(C)c2cc(C)c(C(C)=O)cc2C(C)(C)C1C` (stereo not drawn), the T/C [13] was 107 % of control and the T/C [14] was 99 % of control.
`O=C(Nc1cccc(Cl)c1)OCC(Cl)(Cl)Cl` was tested, and the T/C (dose: 75.0 mg/kg/injection, schedule: Q01DX009 (ip), vehicle: Klucel (hydroxypropylcellulose) (HPC)) was 109 % of control, the T/C (dose: 150.0 mg/kg/injection, schedule: Q01DX009 (ip), vehicle: Klucel (hydroxypropylcellulose) (HPC)) was 103 % of control and the T/C (dose: 300.0 mg/kg/injection, schedule: Q01DX009 (ip), vehicle: Klucel (hydroxypropylcellulose) (HPC)) was 103 % of control.
`O=C(O)c1ccc2c([N+](=O)[O-])cccc2n1` was tested, and the T/C [3] was 112 % of control and the T/C [4] was 112 % of control.
For `CCOC(=O)c1c(N)sc2c1CCN(C)C2`, the T/C (dose: 6.25 mg/kg/injection, schedule: Q04DX003 (ip), vehicle: Klucel (hydroxypropylcellulose) (HPC)) was 95 % of control, the T/C [15] was 100 % of control and the T/C (dose: 12.5 mg/kg/injection, schedule: Q04DX003 (ip), vehicle: Klucel (hydroxypropylcellulose) (HPC)) was 102 % of control. For the same molecule, the T/C [12] was 102 % of control, the T/C (dose: 25.0 mg/kg/injection, schedule: Q04DX003 (ip), vehicle: Klucel (hydroxypropylcellulose) (HPC)) was 89 % of control and the T/C (dose: 35.0 mg/kg/injection, schedule: Q04DX003 (ip), vehicle: Klucel (hydroxypropylcellulose) (HPC)) was 105 % of control. The T/C (dose: 55.0 mg/kg/injection, schedule: Q04DX003 (ip), vehicle: Klucel (hydroxypropylcellulose) (HPC)) was 121 % of control.
